In patent publication US20140039044A1, “Hydroxylated Polymethoxyflavone Compositions” (WLLGEN, INC., priority 2006, published 2014):

Tests used:
Format in all cases: cell-based, human
AGS cells [1] = experiment: Cell survival assay (antiproliferative IC50); settings: AGS cells; read-out: Antiproliferative IC50
Protocol: (§1) Human colon carcinoma COLO205 and HT-29 cell lines (American Type Culture Collection (ATTC), Manassas, Va.) and the leukemia cell line HL-60 were maintained at 37° C. in 5% CO2 air in RPMI 1640 medium supplemented with 10% heat-inactivated fetal bovine serum (Gibco BRL, Grand Island, N.Y.), 100 units/mL penicillin, 100 μg/mL streptomycin and 2 mM 1-glutamine. The human gastric carcinoma AGS cell line (CCRC 60102), obtained from the Food Industry Research and Development Institute (Hsinchu, Taiwan), was maintained as described above, except that DMEM/F 12 was used as the medium rather than the RPMI 1640 medium. The human breast carcinoma MCF-7 cell line MCF-7 (ATTC) was cultured in RPMI 1640 medium supplemented with 5% fetal calf serum at 37° C. in a humidified atmosphere of 5% CO2 in air. The mouse macrophage cell line RAW 264.7 was maintained in RPMI 1640 supplemented with 100 U/ml penicillin, 100 μg/ml streptomycin, and 10% heat-inactivated fetal calf serum.
(§2) Cancer cells (2×10^5) were plated in 12-well Petri dishes. The next day, the medium was changed and treated with different concentration of the test compounds or compositions for 24 h. Where individual compounds were to be tested, stock solutions of the compound was prepared to contain 200 μM of the individual hydroxylated or non-hydroxylated PMF in dimethylsulfoxide (DMSO). Control cells were treated with DMSO to a final concentration of 0.05% (v/v). Depending on the objective of the particular experiment, cells were treating with test compound or composition for 1, 3 or 6 days. At the end of incubation, cells were harvested for cell count using a hemocytometer and measuring the cellular total nucleic acid content with the CyQUANT Cell Proliferation Assay Kit (Molecular Probes).
(§3) 1 N PMF and 6 N PMF compositions containing hydroxylated PMFs, prepared as described in Section 8.3 above, 70% PMF OPE and 5,6,7,8,3′,4′-hexamethoxyflavone (nobiletin) were tested for antiproliferative activity and apoptosis-inducing activity in HL-60, AGS and COLO205 cells as described in Section 8.4 above. Antiproliferative and apoptosis-inducing activities were derived as IC50 values and AC50, values, respectively, where AC50 is the concentration required for 50% apoptosis.
(§4) The PMF compounds were assayed in vitro for cell growth inhibition and for their ability to induce apoptosis in various human cancer cells, including HL-60, AGS, COLO 205, and HT-29 cells, using methods described in Section 8.4 above. Antiproliferative (IC50) and apoptosis-inducing activity (AC50) of PMFs in the HL-60, AGS, COLO 205, and HT-29 cells are reported in Table 9, where *P<0.05, **P<0.01 and ***P<0.001 indicate statistically significant differences from the control group.

COLO205 cells [2] = experiment: Cell survival assay (antiproliferative IC50); settings: COLO205 cells; read-out: Antiproliferative IC50
Protocol: as §1, §2, §3, §4

HL-60 cells [3] = experiment: Cell cycle distribution by flow cytometry; settings: 24 h, Table 10
Protocol: (§5) The human cancer cells (2×10^5) were cultured in 60-mm Petri dishes and incubated for 24 h. After treated with test compounds for 24 h, the cells were then harvested, washed with PBS resuspended in 200 μL of PBS, and fixed in 800 μL of iced 100% ethanol at −20° C. After being left to stand overnight, the cell pellets were collected by centrifugation, resuspended in 1 mL of hypotonic buffer (0.5% Triton X-100 in PBS and 0.5 μg/mL RNase) and incubated at 37° C. for 30 min. Next, 1 mL of propidium iodide solution (50 μg/mL) was added, and the mixture was allowed to stand on ice for 30 min. Fluorescence emitted from the propidium iodide-DNA complex was quantitated after excitation of the fluorescent dye by FACScan cytometry (Becton Dickinson, San Jose, Calif.).
The effects of the hydrolyzed PMF-enriched compositions, nobiletin and 70% PMF OPE on cell cycle distribution were studied, following the procedures described in Section 8.4. Results for cell cycle distribution in HL-60 cells, COLO205 cells and AGS cells are provided in Table 5, Table 6 and Table 7, respectively. […] In HL-60 cells, G2/M arrest predominated in cells treated with 6N PMF concentrations ≧5 μM and with 1N PMF concentrations ≧25 μM.
(§6) Compounds A-K were evaluated in terms of their effects in arresting cell cycle progression by observing cell cycle phase distribution in cells treated with the compounds. Cells were treated with 5, 10, 25, 50, and 100 μM of one of compound A-K or DMSO (control) for 24 h and subjected to flow cytometric analysis after staining their DNA, as described above.

HT-29 cells [4] = experiment: Cell survival assay (antiproliferative IC50)
Protocol: as §1, §2, §4

HT-29 cells [5] = experiment: Cell cycle distribution by flow cytometry; settings: 24 h
Protocol: as §5, §6
Similar cell cycle phase distribution studies were performed in AGS, COLO205, and HT-29 cells in response to individual PMFs, with results reported in Tables 11, 12 and 13, respectively.

AGS cells [6] = experiment: Apoptotic ratio by propidium iodide flow cytometry (AC50); settings: AGS cells; read-out: Apoptosis-inducing AC50
Protocol: as §5, §3, §4

COLO205 cells [7] = experiment: as above; settings: COLO205 cells; read-out: Apoptosis-inducing AC50
Protocol: as §5, §3, §4

HL-60 cells [8] = experiment: as above; settings: HL-60 cells; read-out: Apoptosis-inducing AC50
Protocol: as §5, §3, §4

HT-29 cells [9] = experiment: as above; settings: read-out: Apoptosis-inducing AC50
Protocol: as §5, §4

COc1ccc(-c2oc3c(OC)c(OC)c(OC)c(OC)c3c(=O)c2O)cc1OC [B, 3-hydroxy-5,6,7,8,3′,4-hexamethoxyflavone]
IC50 (AGS cells [1]): 72.3 ± 7.91 µM | IC50 (COLO205 cells [2]): 23.3 ± 1.56 µM | Cell Cycle Distribution G0/G1 (HL-60 cells [3]; 5 μM): 42.63 ± 0.85 | Cell Cycle Distribution G2/M (HL-60 cells [3]; 5 μM): 9.99 ± 1.70 | Cell Cycle Distribution S (HL-60 cells [3]; 5 μM): 47.38 ± 0.42 | Cell Cycle Distribution G0/G1 (HL-60 cells [3]; 10 μM): 40.76 ± 0.28 | Cell Cycle Distribution G2/M (HL-60 cells [3]; 10 μM): 0.23 ± 0.42 | Cell Cycle Distribution S (HL-60 cells [3]; 10 μM): 59.01 ± 0.78 | Cell Cycle Distribution G0/G1 (HL-60 cells [3]; 25 μM): 47.74 ± 0.71 | Cell Cycle Distribution G2/M (HL-60 cells [3]; 25 μM): 0.00 ± 0.64 | Cell Cycle Distribution S (HL-60 cells [3]; 25 μM): 52.26 ± 0.64 | Cell Cycle Distribution G0/G1 (HL-60 cells [3]; 50 μM): 41.48 ± 0.85 | Cell Cycle Distribution G2/M (HL-60 cells [3]; 50 μM): 0.00 ± 0.57 | Cell Cycle Distribution S (HL-60 cells [3]; 50 μM): 58.52 ± 0.42 | Cell Cycle Distribution G0/G1 (HL-60 cells [3]; 100 μM): 49.63 ± 0.28 | Cell Cycle Distribution G2/M (HL-60 cells [3]; 100 μM): 0.51 ± 0.64 | Cell Cycle Distribution S (HL-60 cells [3]; 100 μM): 43.86 ± 0.21 | IC50 (HT-29 cells [4]): 63.63 ± 0.49 µM | Cell Cycle Distribution G0/G1 (HT-29 cells [5]; 5 μM): 63.71 ± 1.80 | Cell Cycle Distribution G2/M (HT-29 cells [5]; 5 μM): 6.50 ± 0.37 | Cell Cycle Distribution S (HT-29 cells [5]; 5 μM): 29.8 ± 1.42 | Cell Cycle Distribution G0/G1 (HT-29 cells [5]; 10 μM): 69.27 ± 3.06 | Cell Cycle Distribution G2/M (HT-29 cells [5]; 10 μM): 5.60 ± 0.85 | Cell Cycle Distribution S (HT-29 cells [5]; 10 μM): 25.14 ± 2.21 | Cell Cycle Distribution G0/G1 (HT-29 cells [5]; 25 μM): 70.85 ± 1.84 | Cell Cycle Distribution G2/M (HT-29 cells [5]; 25 μM): 4.37 ± 0.62 | Cell Cycle Distribution S (HT-29 cells [5]; 25 μM): 24.8 ± 1.23 | Cell Cycle Distribution G0/G1 (HT-29 cells [5]; 50 μM): 70.11 ± 1.44 | Cell Cycle Distribution G2/M (HT-29 cells [5]; 50 μM): 10.73 ± 0.47 | Cell Cycle Distribution S (HT-29 cells [5]; 50 μM): 19.18 ± 0.96 | Cell Cycle Distribution G0/G1 (HT-29 cells [5]; 100 μM): 66.75 ± 1.06 | Cell Cycle Distribution G2/M (HT-29 cells [5]; 100 μM): 8.82 ± 0.26 | Cell Cycle Distribution S (HT-29 cells [5]; 100 μM): 24.45 ± 0.80 | AC50 (AGS cells [6]): > 100 µM | AC50 (COLO205 cells [7]): > 100 µM | AC50 (HL-60 cells [8]): 56.5 ± 2.39 µM | AC50 (HT-29 cells [9]): > 100 µM
